Measured values: US20140303092A1 (CHIMERIX, INC., priority 2011, published 2014)

Experiment: Study HDP-CDV-201: safety and tolerability (adverse events, laboratory abnormalities, discontinuations)
Assay type: in vivo, human (adult allogeneic HSCT recipients)
Details: for Subjects with Hemoglobin <6.5 g/dL / Subjects with Hemoglobin <8-6.5 g/dL / Subjects with Hemoglobin <10-8 g/dL / Subjects with Hemoglobin <LLN-10 g/dL / Subjects with Neutrophils <0.5 GI/L / Subjects with Neutrophils <1.0-0.5 GI/L / Subjects with Neutrophils <1.5-1 GI/L / Subjects with Neutrophils <LLN-1.5 GI/L / Subjects with Platelets <25 GI/L / Subjects with Platelets <50-25 GI/L / Subjects with Platelets <75-50 GI/L / Subjects with Platelets <LLN-75 GI/L / Subjects with Serum Creatinine >1 × ULN-[…] ULN / Subjects with Serum Creatinine >3 × ULN-6 × ULN / Subjects with Serum Creatinine >6 × ULN / Subjects with Serum Creatinine >[…] ULN-3 × ULN / Subjects with WBC <1 GI/L / Subjects with WBC <2-1 GI/L / Subjects with WBC <3-2 GI/L / Subjects with WBC <LLN-3 GI/L: any time during therapy
Procedure: Clinical Studies of HDP-CDV were performed and described in detail in the following Examples. For example, HDP-CDV-201 is a placebo-controlled, dose-escalating trial in HSCT CMV (R+) recipients, evaluating the ability of HDP-CDV to prevent or control CMV infection was carried out. Five cohorts were established in which participants or subjects received either placebo or the HDP-CDV orally, in doses ranging from 40 mg weekly (QW) to 200 mg twice weekly (BIW). Subjects who were post-HSCT were enrolled at the time of engraftment and randomized to HDP-CDV or placebo (3 to 1 ratio) and received blinded therapy until approximately 100 day post-transplantation. HDP-CDV doses were 40 mg QW, 100 mg QW, 200 mg QW, 200 mg BIW and 100 mg BIW. Escalation to the next dose was decided by the data monitoring committee after review of the safety data from the previous Cohort. Subjects who developed CMV disease or CMV infection requiring pre-emptive therapy with local standard of care were discontinued from blinded therapy and followed for 4 weeks. Subjects who completed treatment with blinded therapy were followed for 8 weeks post-therapy.
Data from Study HDP-CDV-201 also provided characterization of the safety and tolerability profile of HDP-CDV when administered for the prevention or control of CMV infection in high risk (R^+) post-HSCT adult subjects.
The Safety population (SAFETY) included all randomized subjects who took at least one dose of study treatment. This population was used to summarize safety outcomes based on the treatment actually received, in cases where a subject was treated contrary to the randomization schedule.
The safety and tolerability profile of HDP-CDV, including subject demographics and Baseline characteristics; the AE profile; and laboratory abnormalities of interest were analyzed in the cohorts followed in this investigation.
Subjects completing the treatment period received a full course of study medication; those completing the entire study attended visits through 8 weeks of follow up. Subjects who discontinued treatment may have done so for protocol specified reasons (e.g. development of clinically significant CMV infection requiring preemptive treatment with excluded anti-CMV medications) or for other reasons (e.g., withdrawal, adverse events, loss to follow-up). The disposition of subjects in Study HDP-CDV-201 during the double-blind, placebo-controlled treatment period (through Week 11) is listed by dosing Cohort in TABLE 23.
Adverse events were examined by severity to ensure that all safety signals were identified in this study population. Because of the frequency of events in HSCT recipients, particular attention was given to evaluation of Grade 3 […], 4 (severe), and 5 (fatal) adverse events.
Only those preferred terms for which at least one Grade 3 or higher event was experienced in any treatment group are listed. Cytomegalovirus-related AEs are excluded from this analysis.
HDP-CDV is a lipid conjugate of CDV. Because CDV is known to have adverse effects on renal function and bone marrow, decreased GFR and persistent neutropenia were identified as AEs of special interest. Key renal and hematological (TABLE 30) laboratory parameters were measured and listed below by Study HDP-CDV-201 treatment groups. TABLE 30 includes abnormal levels of serum creatinine, neutrophils, platelets, WBCs, and hemoglobin and includes data at Screening and during the treatment period.
A common metric for unit based dosing of medications is by weight (mg/kg). When the distribution of weights was examined for all subjects participating in the study, the median was 78 kg and the lower 25th percentile weight was approximately 65 kg, which translates to a cut-off of ˜3 mg/kg for a 200 mg total weekly dose. Based upon this approach, a cut-off of 3 mg/kg was used to assess the frequency of diarrhea and associated GI AEs reported for the subjects in Cohorts 3 or 4a (TABLE 40).

For `CCCCCCCCCCCCCCCCOCCCOP(=O)(O)COC(CO)Cn1ccc(N)nc1=O` (centres unmarked) [HDP-CDV], the “Outcome of hepatobiliary AE hyperbilirubinemia, subject 4080” value (Cohort 4a) was “not recovered/not”, the “Outcome of hepatobiliary AE hyperbilirubinemia, subject 4090” value (Cohort 4a) was “recovered/resolved” and the “Outcome of hepatobiliary AE worsening hyperbilirubinemia, subject 4109” value (Cohort 4a) was “not recovered/not”. For the same compound, the “Relationship of hepatobiliary AE cholecystitis, subject 4058” value (Cohort 4a) was “not related”, the “Relationship of hepatobiliary AE hyperbilirubinemia, subject 4080” value (Cohort 4a) was “not related” and the “Relationship of hepatobiliary AE hyperbilirubinemia, subject 4090” value (Cohort 4a) was “possibly related”. The “Relationship of hepatobiliary AE worsening hyperbilirubinemia, subject 4109” value (Cohort 4a) was “not related”, the “frequency of SAEs involving the gastrointestinal tract” value (Cohort 4a (100 mg BIW)) was 42% and the “typical ALT increases relative to Baseline” value (Weeks 2 to 4 of dosing, doses of 200 mg per week or higher) was 2-4 times Baseline. The “subjects who discontinued study drug because of GI AEs” value (after introduction of the safety monitoring and management plan) was ≤ 10%, the “Grade 3 or 4 increases in creatinine” value (any dose) was “no Grade 3 or 4 increases in creatinine” and the “subjects who discontinued study drug due to GI AEs” value (any dose other than 200 mg BIW) was “less than 10%”. The “Subjects with Hemoglobin <6.5 g/dL” value (40 mg QW) was 0, the “Subjects with Hemoglobin <8-6.5 g/dL” value (40 mg QW) was 1 (4.3%) and the “Subjects with Hemoglobin <10-8 g/dL” value (40 mg QW) was 11 (47.8%). For the same compound, the “Subjects with Hemoglobin <LLN-10 g/dL” value (40 mg QW) was 10 (43.5%), the “Subjects with Neutrophils <0.5 GI/L” value (40 mg QW) was 0 and the “Subjects with Neutrophils <1.0-0.5 GI/L” value (40 mg QW) was 2 (8.7%). The “Subjects with Neutrophils <1.5-1 GI/L” value (40 mg QW) was 5 (21.7%), the “Subjects with Neutrophils <LLN-1.5 GI/L” value (40 mg QW) was 4 (17.4%) and the “Subjects with Platelets <25 GI/L” value (40 mg QW) was 4 (17.4%). The “Subjects with Platelets <50-25 GI/L” value (40 mg QW) was 9 (39.1%), the “Subjects with Platelets <75-50 GI/L” value (40 mg QW) was 4 (17.4%) and the “Subjects with Platelets <LLN-75 GI/L” value (40 mg QW) was 6 (26.1%). For the same compound, the “Subjects with Serum Creatinine >1 × ULN-[…] ULN” value (40 mg QW) was 8 (34.8%), the “Subjects with Serum Creatinine >3 × ULN-6 × ULN” value (40 mg QW) was 0 and the “Subjects with Serum Creatinine >6 × ULN” value (40 mg QW) was 0. For the same compound, the “Subjects with Serum Creatinine >[…] ULN-3 × ULN” value (40 mg QW) was 2 (8.7%), the “Subjects with WBC <1 GI/L” value (40 mg QW) was 0 and the “Subjects with WBC <2-1 GI/L” value (40 mg QW) was 5 (21.7%). The “Subjects with WBC <3-2 GI/L” value (40 mg QW) was 6 (26.1%), the “Subjects with WBC <LLN-3 GI/L” value (40 mg QW) was 5 (21.7%) and the “Subjects with Hemoglobin <6.5 g/dL” value (100 mg BIW) was 1 (2.0%). The “Subjects with Hemoglobin <8-6.5 g/dL” value (100 mg BIW) was 4 (8.0%), the “Subjects with Hemoglobin <10-8 g/dL” value (100 mg BIW) was 27 (54.0%) and the “Subjects with Hemoglobin <LLN-10 g/dL” value (100 mg BIW) was 17 (34.0%). For the same compound, the “Subjects with Neutrophils <0.5 GI/L” value (100 mg BIW) was 3 (6.0%), the “Subjects with Neutrophils <1.0-0.5 GI/L” value (100 mg BIW) was 10 (20.0%) and the “Subjects with Neutrophils <1.5-1 GI/L” value (100 mg BIW) was 10 (20.0%). The “Subjects with Neutrophils <LLN-1.5 GI/L” value (100 mg BIW) was 5 (10.0%), the “Subjects with Platelets <25 GI/L” value (100 mg BIW) was 6 (12.0%) and the “Subjects with Platelets <50-25 GI/L” value (100 mg BIW) was 7 (14.0%). For the same compound, the “Subjects with Platelets <75-50 GI/L” value (100 mg BIW) was 10 (20.0%), the “Subjects with Platelets <LLN-75 GI/L” value (100 mg BIW) was 21 (42.0%) and the “Subjects with Serum Creatinine >1 × ULN-[…] ULN” value (100 mg BIW) was 16 (32.0%). The “Subjects with Serum Creatinine >3 × ULN-6 × ULN” value (100 mg BIW) was 0, the “Subjects with Serum Creatinine >6 × ULN” value (100 mg BIW) was 0 and the “Subjects with Serum Creatinine >[…] ULN-3 × ULN” value (100 mg BIW) was 10 (20.0%). For the same compound, the “Subjects with WBC <1 GI/L” value (100 mg BIW) was 4 (8.0%), the “Subjects with WBC <2-1 GI/L” value (100 mg BIW) was 8 (16.0%) and the “Subjects with WBC <3-2 GI/L” value (100 mg BIW) was 12 (24.0%). For the same compound, the “Subjects with WBC <LLN-3 GI/L” value (100 mg BIW) was 11 (22.0%), the “Subjects with Hemoglobin <6.5 g/dL” value (100 mg QW) was 1 (3.7%) and the “Subjects with Hemoglobin <8-6.5 g/dL” value (100 mg QW) was 1 (3.7%). For the same compound, the “Subjects with Hemoglobin <10-8 g/dL” value (100 mg QW) was 12 (44.4%) and the “Subjects with Hemoglobin <LLN-10 g/dL” value (100 mg QW) was 12 (44.4%).
